Laboratory results: patent US20230190616A1, “COMPOUNDS USEFUL FOR THE TREATMENT AND/OR CARE OF THE SKIN, HAIR, NAILS AND/OR MUCOUS MEMBRANES” (LUBRIZOL ADVANCED MATERIALS, INC., priority 2018, published 2023)

Assays:
Type in all cases: cell-based
[1] = tested on: Musclebind like protein 1 (MBNL1) in human skeletal muscle cells (hSkMc); test: Quantification of Musclebind like protein 1 in human skeletal muscle cells by TR-FRET; conditions: for % MBNL1 vs basal level / MBNL1 levels compared to the basal control and to Argireline (in words): 0.5 mg/ml; for % MBNL1 vs basal level: 48 hours
Method: In vitro quantification of Musclebind like protein 1 in human skeletal muscle cells by Time resolved fluorescence resonance energy transfer.
MBNL1 induction by the peptides of the invention is evaluated by a Time resolved fluorescence resonance energy transfer (TR-FRET) assay. The aim of this study is to investigate the capacity of peptide candidates to increase MBNL-1 in human skeletal muscle cells (hSkMc).
hSkMc (Innoprot) are seeded in 12-well plates at a density of 1.5×10^4 cells/well in Skeletal Muscle Cell Growth Medium (Promocell). After 72 hours incubation, medium is removed and replaced with Skeletal Muscle Cell Differentiation Medium (Promocell). 48 hours after beginning cell differentiation, fresh differentiation medium with 0.5 mg/ml of test items is added. Treatment is continued for 48 hours and non-treated cells are used as basal control. After 48 hours of treatment, cell medium is removed and cell lysis buffer is added to wells. Immediately, plates are kept at -80° C. in order to improve protein extraction during the defrosting process. After 72 hours, cells are lysed by shaking the plates in an orbital rotor at room temperature for 45 minutes. Next, cell lysates are collected and assayed to quantify the level of MBNL-1 protein and total protein concentration.
MBNL-1 protein levels measurement is performed with Human MBNL1 Assay Kit (Cisbio) according to the manufacturer’s protocol. Briefly, the kit is used to perform a TR-FRET for MBNL1 quantification. The protein is detected with the antibodies provided in the kit and quantified by a fluorescence measurement. The quantification is carried out by using a microplate reader (ClarioStar™™™, BMG) set to 665 nm and 620 nm.
Total protein concentration of cell lysate is determined by using Pierce BCA Protein Assay Kit (Thermo Scientific) according to manufacturer’s protocol. In brief, after adding Working Reagent to the samples and the standards, the samples are incubated. Afterwards, color change is measured with an absorbance microplate reader (Clariostar™, BMG) at 562 nm. The total protein amount is used to normalize the level of MBNL1 protein concentration obtained by the TR-FRET test in the samples.

[2] = tested on: human neuroblastoma cell line (SH-SY5Y); test: Inhibition of noradrenaline (NA) release from human neuroblastoma cells, ELISA
Text: Inhibition of noradrenaline release from human neuroblastoma cells.
Release of neurotransmitters by exocytosis in neuromuscular junctions from peripheral neurons to skeletal muscle allows muscle contraction. Face muscles are subject to said contraction and facial muscle contraction is more frequent around eyes, mouth and forehead than elsewhere in the face. With age, continuous release of neurotransmitters into neuromuscular junctions and decrease of elasticity contribute to the increase of facial wrinkles and permanent expression lines. Compounds able to block or decrease exocytosis on neuromuscular junction sites are thus good candidates for the cosmetic treatment of unaesthetic wrinkles. In vitro induction of the neurotransmitter Noradrenaline (NA) release in a human neuroblastoma cell line (SH-SY5Y) is considered a direct and reliable method for exocytosis measurement. The aim of this study is to evaluate the efficacy of the peptides of the invention on the inhibition of neuronal exocytosis by means of measuring the levels of NA release in SH-SY5Y cells by Enzyme-linked Immunosorbent Assay (ELISA).
SH-SY5Y (ECACC) cells are seeded in 12-well plates at a density of 1×10^6 cells/well. After a 6-day culture, medium is removed from wells and cells are treated for 60 minutes with the peptides of the invention dissolved in Hank’s Balanced Salt Solution (HBSS, Life Technologies) at 1 and 2.5 mg/ml. Cells treated with HBSS alone are used as a basal control. To mobilize NA vesicles, supernatants are removed and 100 nM Tetradecanoylphorbol-13-acetate (TPA, Sigma) is dissolved in the presence of test items in HBSS or dissolved in HBSS alone in the case of the basal control. After this, solutions with TPA are removed and NA release is induced by the addition of 10 µM lonomycin (Epica) with 100 nM TPA dissolved in the presence of test items in HBSS or dissolved in HBSS alone in the case of the basal control. Afterwards, the medium in the wells, containing released NA, is collected and centrifuged. Supernatants obtained are used for quantification of NA by ELISA with noradrenalin ELISA kit (IBL International) following manufacturer’s instructions. In brief, direct sandwich ELISA is performed with a plate pre-coated with an anti-NA antibody. The color obtained after substrate addition is directly proportional to the amount of NA present in each condition tested. Absorbance is read in a microplate absorbance reader (Clariostar™, BMG) at 405 nm. The percentage of NA release for each condition is calculated respect to basal control.

[3] = tested on: collagen type I in primary human dermal fibroblasts (HDFn); test: Type I collagen synthesis on human dermal fibroblasts by ELISA; conditions: 0.5 µg/ml; for % Collagen induction: 48 hours
Text: In vitro study of type I collagen synthesis on human dermal fibroblasts by Enzyme-Linked Immunosorbent Assay.
Collagen type I is the principal collagen of skin. This molecule, which is mainly produced by fibroblasts, is responsible for the strength and resiliency of this tissue. For this reason, in vitro quantification of collagen induction by cosmetic products on human dermal fibroblasts provides information about their potential anti-aging effects on the skin. Collagen induction by the peptides of the invention is evaluated with an Enzyme-Linked Immunosorbent Assay (ELISA). The aim of this study is to investigate the ability of a product to induce collagen type I synthesis in primary human dermal fibroblasts isolated from neonatal skin (HDFn).
HDFn (Cascade) are seeded at a density of 5×10^4 in 48-well plates. After 24-hour incubation, fresh medium with scalar dilutions of the test items at 0.5 µg/ml are added. Non-treated cells are used as basal control. The cells are treated for 48 hours. Then, the medium of the wells is collected and transferred into a 96-well plate. A standard calibration curve prepared with calf skin type I collagen (Sigma) is transferred into the plate as well. The plate is left overnight in order to coat type I collagen into its surface. After that, collagen I is detected with an anti-collagen type I antibody (Sigma). The primary antibody is then recognized by a secondary antibody IgG-HRP (molecular probes). 3,3,5,5-tetramethylbenzidine liquid substrate (TMB, Sigma) is added to measure the amount of secondary antibody attached. The color produced by this reaction is measured in a microtiter plate reader (Clariostar™, BMG) and type I collagen concentration is determined using a linear regression of the standard curve.

[4] = tested on: Musclebind like protein 1 (MBNL1) in human skeletal muscle cells (hSkMc); test: Quantification of Musclebind like protein 1 in human skeletal muscle cells by TR-FRET; conditions: 1 mg/ml; 48 hours
[5] = hSkMc, normalized to total protein
[6] = 1 mg/ml, SH-SY5Y, respect to basal control, mean of 3 assays
[7] = 2.5 mg/ml, SH-SY5Y, respect to basal control, mean of 3 assays
[8] = HDFn, versus non-treated cells, mean of 5 assays

Substance | % MBNL1 vs basal level [1, 5] [%] | MBNL1 levels compared to the basal control and to Argireline (in words) ([1]; hSkMc) | other results
H-L-Arg-L-Arg-L-Gln-D-Met-L-Glu-L-Glu-NH2 [PEP-27] | 144.2 | increase MBNL1 levels | –
Ac-L-Arg-L-Gln-D-Met-L-Glu-L-Glu-NH2 [PEP-43] | 112.4 | increase MBNL1 levels | –
Ac-L-Arg-L-Arg-D-Gln-D-Met-L-Glu-L-Glu-NH2 [PEP-24] | 120.9 | increase MBNL1 levels | % Released NA [2, 6]: 65.8%; % Released NA [2, 7]: 52.3%; % Collagen induction [3, 8]: 104.7%
Ac-L-Arg-L-Lys-L-Gln-D-Met-L-Glu-L-Glu-NH2 [PEP-35] | 144.3 | increase MBNL1 levels | –
Ac-L-Arg-L-Arg-L-Gln-D-Met-L-Glu-L-Gln-NH2 [PEP-31] | 161.3 | increase MBNL1 levels | –
Ac-L-Arg-L-Arg-L-Asp-D-Met-L-Glu-L-Glu-NH2 [PEP-41] | 151.3 | increase MBNL1 levels | –
ARGIRELINE [Ac—Glu—Glu—Met—Gln—Arg—Arg, reference compound] | – | – | % Released NA ([2]; 1 mg/ml): 79.6%; % Released NA ([2]; 2.5 mg/ml): 63.5%; % Collagen induction [3]: 109.8%; Effect on MBNL1 (in words) [1]: no effect; % MBNL1 vs basal level [1]: 96.6%; % MBNL1 vs basal level [4]: 86.9%
Ac-L-Arg-L-Arg-L-Gln-D-Met-L-Glu-NH2 [PEP-44] | 137.8 | increase MBNL1 levels | –
Ac-L-Arg-L-Arg-L-Gln-D-Met-L-Glu-L-Glu-OH [PEP-26] | 109.6 | increase MBNL1 levels | –
Ac-L-Arg-L-Arg-L-Gln-D-Leu-L-Glu-L-Glu-NH2 [PEP-37] | 140.3 | increase MBNL1 levels | –
Ac-L-Arg-L-Arg-L-Gln-D-Met-L-Asp-L-Glu-NH2 [PEP-30] | 160.0 | increase MBNL1 levels | –
Ac-L-Lys-L-Arg-L-Gln-D-Met-L-Glu-L-Glu-NH2 [PEP-36] | 117.6 | increase MBNL1 levels | –
Ac-L-Ala-L-Arg-L-Arg-L-Gln-D-Met-L-Glu-L-Glu-L-Ala-NH2 [PEP-42] | 144.4 | increase MBNL1 levels | –
Ac-L-Arg-L-Arg-L-Gln-L-Met-L-Glu-L-Glu-NH2 [PEP-21] | 91.9 | – | % Released NA [2, 6]: 78.9%; % Released NA [2, 7]: 43.8%; % Collagen induction [3, 8]: 119.3%; Efficacy in increasing collagen type I compared with Argireline (in words) ([3]; HDFn): even higher
